Measured values as given in PubChem BioAssay (NCI).
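Following 48 hours of exposure in 96-well plates, responses at five concentrations were used to interpolate endpoints linearly. At the TGI there is no net growth.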

Assays:
Experiment in all cases: NCI tumour cell line growth inhibition, 48 h
786-0 renal = system: 786-0 renal
A498 renal = system: A498 renal
A549 NSCLC = system: A549 NSCLC
ACHN renal = system: ACHN renal
BT-549 breast = system: BT-549 breast
CAKI-1 renal = system: CAKI-1 renal
CCRF-CEM leukemia = system: CCRF-CEM leukemia
COLO 205 colon = system: COLO 205 colon
DU-145 prostate = system: DU-145 prostate
EKVX NSCLC = system: EKVX NSCLC
HCC-2998 colon = system: HCC-2998 colon
HCT-116 colon = system: HCT-116 colon
HCT-15 colon = system: HCT-15 colon
HL-60(TB) leukemia = system: HL-60(TB) leukemia
HOP-62 NSCLC = system: HOP-62 NSCLC
HOP-92 NSCLC = system: HOP-92 NSCLC
HS 578T breast = system: HS 578T breast
HT29 colon = system: HT29 colon
IGROV1 ovarian = system: IGROV1 ovarian
KM12 colon = system: KM12 colon
LOX IMVI melanoma = system: LOX IMVI melanoma
M14 melanoma = system: M14 melanoma
MCF7 breast = system: MCF7 breast
MDA-MB-231 breast = system: MDA-MB-231 breast
MDA-MB-435 = system: MDA-MB-435
MDA-N = system: MDA-N
MOLT-4 leukemia = system: MOLT-4 leukemia
NCI-H226 lung = system: NCI-H226 lung
NCI-H23 lung = system: NCI-H23 lung
NCI-H460 lung = system: NCI-H460 lung
NCI-H522 lung = system: NCI-H522 lung
NCI/ADR-RES ovarian = system: NCI/ADR-RES ovarian
OVCAR-3 ovarian = system: OVCAR-3 ovarian
OVCAR-4 ovarian = system: OVCAR-4 ovarian
OVCAR-5 ovarian = system: OVCAR-5 ovarian
OVCAR-8 ovarian = system: OVCAR-8 ovarian
PC-3 prostate = system: PC-3 prostate
RXF 393 renal = system: RXF 393 renal
SF-268 CNS = system: SF-268 CNS
SF-295 CNS = system: SF-295 CNS
SF-539 CNS = system: SF-539 CNS
SK-MEL-2 melanoma = system: SK-MEL-2 melanoma
SK-MEL-28 melanoma = system: SK-MEL-28 melanoma
SK-MEL-5 melanoma = system: SK-MEL-5 melanoma
SK-OV-3 ovarian = system: SK-OV-3 ovarian
SN12C renal = system: SN12C renal
SNB-19 CNS = system: SNB-19 CNS
SNB-75 CNS = system: SNB-75 CNS
SR leukemia = system: SR leukemia
SW-620 colon = system: SW-620 colon
T-47D breast = system: T-47D breast
TK-10 renal = system: TK-10 renal
U251 CNS = system: U251 CNS
UACC-257 melanoma = system: UACC-257 melanoma
UACC-62 melanoma = system: UACC-62 melanoma
UO-31 renal = system: UO-31 renal
K-562 leukemia = system: K-562 leukemia
MALME-3M melanoma = system: MALME-3M melanoma
RPMI-8226 leukemia = system: RPMI-8226 leukemia

Work on Cc1ccc2c(c1)[nH]c(=S)n2C=C1C(=O)CC(C)(C)CC1=O yielded a TGI (786-0 renal) greater than 100 µM, a TGI (A498 renal) greater than 100 µM and a TGI (A549 NSCLC) greater than 100 µM. The TGI (ACHN renal) was greater than 100 µM, the TGI (BT-549 breast) was greater than 100 µM and the TGI (CAKI-1 renal) was greater than 100 µM. For the same compound, the TGI (CCRF-CEM leukemia) was greater than 100 µM, the TGI (COLO 205 colon) was greater than 100 µM and the TGI (DU-145 prostate) was greater than 100 µM. The TGI (EKVX NSCLC) was greater than 100 µM, the TGI (HCC-2998 colon) was greater than 100 µM and the TGI (HCT-116 colon) was greater than 100 µM. The TGI (HCT-15 colon) was greater than 100 µM, the TGI (HL-60(TB) leukemia) was greater than 100 µM and the TGI (HOP-62 NSCLC) was greater than 100 µM. It also gave a TGI (HOP-92 NSCLC) greater than 100 µM, a TGI (HS 578T breast) greater than 100 µM and a TGI (HT29 colon) greater than 100 µM. It also gave a TGI (IGROV1 ovarian) greater than 100 µM, a TGI (KM12 colon) greater than 100 µM and a TGI (LOX IMVI melanoma) greater than 100 µM. The TGI (M14 melanoma) was greater than 100 µM, the TGI (MCF7 breast) was greater than 100 µM and the TGI (MDA-MB-231 breast) was greater than 100 µM. The TGI (MDA-MB-435) was greater than 100 µM, the TGI (MDA-N) was greater than 100 µM and the TGI (MOLT-4 leukemia) was greater than 100 µM. It also gave a TGI (NCI-H226 lung) greater than 100 µM, a TGI (NCI-H23 lung) greater than 100 µM and a TGI (NCI-H460 lung) greater than 100 µM. For the same compound, the TGI (NCI-H522 lung) was greater than 100 µM, the TGI (NCI/ADR-RES ovarian) was greater than 100 µM and the TGI (OVCAR-3 ovarian) was greater than 100 µM. It also gave a TGI (OVCAR-4 ovarian) greater than 100 µM, a TGI (OVCAR-5 ovarian) greater than 100 µM and a TGI (OVCAR-8 ovarian) greater than 100 µM. For the same compound, the TGI (PC-3 prostate) was greater than 100 µM, the TGI (RXF 393 renal) was greater than 100 µM and the TGI (SF-268 CNS) was greater than 100 µM. It also gave a TGI (SF-295 CNS) greater than 100 µM, a TGI (SF-539 CNS) greater than 100 µM and a TGI (SK-MEL-2 melanoma) greater than 100 µM. It also gave a TGI (SK-MEL-28 melanoma) greater than 100 µM, a TGI (SK-MEL-5 melanoma) greater than 100 µM and a TGI (SK-OV-3 ovarian) greater than 100 µM. It also gave a TGI (SN12C renal) greater than 100 µM, a TGI (SNB-19 CNS) greater than 100 µM and a TGI (SNB-75 CNS) greater than 100 µM. It also gave a TGI (SR leukemia) greater than 100 µM, a TGI (SW-620 colon) greater than 100 µM and a TGI (T-47D breast) greater than 100 µM. The TGI (TK-10 renal) was greater than 100 µM, the TGI (U251 CNS) was greater than 100 µM and the TGI (UACC-257 melanoma) was greater than 100 µM. For the same compound, the TGI (UACC-62 melanoma) was greater than 100 µM and the TGI (UO-31 renal) was greater than 100 µM.

CN(C)c1ccc(/C=C(\NC(=O)c2ccccc2)C(=O)Nc2ccccc2C(=O)O)cc1 was tested, and the TGI (786-0 renal) was greater than 100 µM, the TGI (A498 renal) was greater than 100 µM and the TGI (A549 NSCLC) was greater than 100 µM. The TGI (ACHN renal) was greater than 100 µM, the TGI (BT-549 breast) was greater than 100 µM and the TGI (CAKI-1 renal) was greater than 100 µM. For the same compound, the TGI (CCRF-CEM leukemia) was greater than 100 µM, the TGI (COLO 205 colon) was greater than 100 µM and the TGI (DU-145 prostate) was greater than 100 µM. For the same compound, the TGI (EKVX NSCLC) was greater than 100 µM, the TGI (HCC-2998 colon) was greater than 100 µM and the TGI (HCT-116 colon) was greater than 100 µM. For the same compound, the TGI (HCT-15 colon) was greater than 100 µM, the TGI (HL-60(TB) leukemia) was greater than 100 µM and the TGI (HOP-62 NSCLC) was greater than 100 µM. The TGI (HOP-92 NSCLC) was greater than 100 µM, the TGI (HS 578T breast) was greater than 100 µM and the TGI (HT29 colon) was greater than 100 µM. The TGI (IGROV1 ovarian) was greater than 100 µM, the TGI (K-562 leukemia) was greater than 100 µM and the TGI (KM12 colon) was greater than 100 µM. It also gave a TGI (LOX IMVI melanoma) greater than 100 µM, a TGI (M14 melanoma) greater than 100 µM and a TGI (MALME-3M melanoma) greater than 100 µM. The TGI (MCF7 breast) was greater than 100 µM, the TGI (MDA-MB-231 breast) was greater than 100 µM and the TGI (MDA-MB-435) was greater than 100 µM. The TGI (MDA-N) was greater than 100 µM, the TGI (MOLT-4 leukemia) was greater than 100 µM and the TGI (NCI-H226 lung) was greater than 100 µM. The TGI (NCI-H23 lung) was greater than 100 µM, the TGI (NCI-H460 lung) was greater than 100 µM and the TGI (NCI-H522 lung) was greater than 100 µM. It also gave a TGI (NCI/ADR-RES ovarian) greater than 100 µM, a TGI (OVCAR-3 ovarian) greater than 100 µM and a TGI (OVCAR-5 ovarian) greater than 100 µM. For the same compound, the TGI (OVCAR-8 ovarian) was greater than 100 µM, the TGI (PC-3 prostate) was greater than 100 µM and the TGI (RPMI-8226 leukemia) was greater than 100 µM. It also gave a TGI (RXF 393 renal) greater than 100 µM, a TGI (SF-268 CNS) greater than 100 µM and a TGI (SF-295 CNS) greater than 100 µM. The TGI (SF-539 CNS) was greater than 100 µM, the TGI (SK-MEL-2 melanoma) was greater than 100 µM and the TGI (SK-MEL-28 melanoma) was greater than 100 µM. It also gave a TGI (SK-MEL-5 melanoma) greater than 100 µM, a TGI (SK-OV-3 ovarian) greater than 100 µM and a TGI (SN12C renal) greater than 100 µM. For the same compound, the TGI (SNB-19 CNS) was greater than 100 µM, the TGI (SNB-75 CNS) was greater than 100 µM and the TGI (SR leukemia) was greater than 100 µM. For the same compound, the TGI (SW-620 colon) was greater than 100 µM, the TGI (T-47D breast) was greater than 100 µM and the TGI (U251 CNS) was greater than 100 µM. It also gave a TGI (UACC-257 melanoma) greater than 100 µM, a TGI (UACC-62 melanoma) greater than 100 µM and a TGI (UO-31 renal) greater than 100 µM.

With CN(C)CCCNc1nnc(NCCCN(C)C)c2c(=O)c3sccc3[nH]c12 the TGI (786-0 renal) was greater than 49.1 µM, the TGI (A498 renal) was greater than 100 µM and the TGI (A549 NSCLC) was greater than 78.9 µM. It also gave a TGI (ACHN renal) greater than 100 µM, a TGI (BT-549 breast) greater than 79 µM and a TGI (CAKI-1 renal) greater than 48.9 µM. The TGI (CCRF-CEM leukemia) was greater than 50.2 µM, the TGI (COLO 205 colon) was greater than 20.2 µM and the TGI (DU-145 prostate) was greater than 100 µM. The TGI (EKVX NSCLC) was 65.6 µM, the TGI (HCC-2998 colon) was 23.7 µM and the TGI (HCT-116 colon) was greater than 33.8 µM. It also gave a TGI (HCT-15 colon) greater than 91.5 µM, a TGI (HL-60(TB) leukemia) greater than 28.2 µM and a TGI (HOP-62 NSCLC) greater than 100 µM. The TGI (HOP-92 NSCLC) was greater than 100 µM, the TGI (HS 578T breast) was greater than 88.6 µM and the TGI (IGROV1 ovarian) was greater than 100 µM. For the same compound, the TGI (K-562 leukemia) was greater than 34.7 µM, the TGI (KM12 colon) was greater than 58.3 µM and the TGI (LOX IMVI melanoma) was 54.4 µM. It also gave a TGI (M14 melanoma) of 23.9 µM, a TGI (MALME-3M melanoma) of 35.5 µM and a TGI (MCF7 breast) greater than 100 µM. For the same compound, the TGI (MDA-MB-231 breast) was greater than 30.7 µM, the TGI (MDA-MB-435) was greater than 54.7 µM and the TGI (MDA-N) was 14.9 µM. The TGI (MOLT-4 leukemia) was 14.4 µM, the TGI (NCI-H226 lung) was 39.1 µM and the TGI (NCI-H23 lung) was greater than 100 µM. The TGI (NCI-H460 lung) was 20.7 µM, the TGI (NCI-H522 lung) was 17.3 µM and the TGI (NCI/ADR-RES ovarian) was greater than 100 µM. It also gave a TGI (OVCAR-3 ovarian) greater than 100 µM, a TGI (OVCAR-4 ovarian) of 23.2 µM and a TGI (OVCAR-5 ovarian) greater than 85.1 µM. The TGI (OVCAR-8 ovarian) was greater than 100 µM, the TGI (PC-3 prostate) was greater than 61.4 µM and the TGI (RPMI-8226 leukemia) was 57.2 µM. For the same compound, the TGI (RXF 393 renal) was 42.1 µM, the TGI (SF-268 CNS) was 25.7 µM and the TGI (SF-295 CNS) was greater than 54 µM. For the same compound, the TGI (SF-539 CNS) was 30.1 µM, the TGI (SK-MEL-2 melanoma) was 37.8 µM and the TGI (SK-MEL-28 melanoma) was greater than 84.9 µM. The TGI (SK-MEL-5 melanoma) was 16 µM, the TGI (SK-OV-3 ovarian) was greater than 100 µM and the TGI (SN12C renal) was 50.9 µM. The TGI (SNB-19 CNS) was greater than 100 µM, the TGI (SNB-75 CNS) was 19.6 µM and the TGI (SR leukemia) was greater than 30.5 µM. It also gave a TGI (SW-620 colon) greater than 72.2 µM, a TGI (T-47D breast) greater than 51.5 µM and a TGI (TK-10 renal) greater than 100 µM. The TGI (U251 CNS) was greater than 100 µM, the TGI (UACC-257 melanoma) was greater than 100 µM and the TGI (UACC-62 melanoma) was 23.7 µM. The TGI (UO-31 renal) was 9.15 µM.
